Measured values as given in patent publication US20210284952A1, “METHODS OF APPLYING ACETATE TOXICITY AND INDUCING ACETATE UPTAKE IN MICROALGAE CULTURES” (HELIAE DEVELOPMENT LLC, priority 2016, published 2021).
Structures can show the parent of a compound that is named as a salt. Where two headings read alike, the source gives them in different places.

Legend:
Chlorella sp. HS26 [1] = settings: pH-auxostat feed
Source text: Samples were taken daily to measure dry weight and residual acetate concentration of the culture medium.

Chlorella sp. HS26 [2] = test system: Chlorella sp. HS26
Procedure: The experiment of Example 11 was repeated with Chlorella sp. HS26 to evaluate the impact of pH induced acetate toxicity on microalgal lipid and protein accumulation. The two treatments of pH 6.5 and pH 7.5 were set up in outdoor raceway ponds utilizing a pH auxostat with a set point at the designated pH values. The microalgae were cultured for 8 days. Duplicate cultures of each treatment were performed in the experiment. […] The cultures were inoculated at a density of 1 g/L, cultured at a temperature of 25° C., and received natural sunlight.

total aerobic bacteria = settings: for Contamination: pH 5.5 with Acetic Acid, pH 7.0 with HCl
Procedure: (§1) An experiment was performed to determine the effectiveness of applying acetate toxicity to microalgae cultures grown in the presence of a non-acetate organic carbon source, in this case glycerol. Aurantiochytrium sp. HS399 was grown in a 100 L open pond. […] Trace and vitamins stocks were prepared according to Ashford, et al. 2000. Lipids 35, 1377-1386. The ponds were inoculated at 1 v/v using exponentially growing cultures. Aeration was maintained at 0.5 vvm using a porous hose. […] Cytosolic (internal cell) acetate concentration was calculated using the previously described model.

[3] = test system: Aurantiochytrium sp. HS399; settings: pH 5.5 with Acetic Acid, pH 7.0 with HCl
Procedure: as §1

[4] = test system: Aurantiochytrium sp. HS399
Source text: Because the microalgae pH homeostasis will tend to maintain an internal cell pH slightly above neutral (about 7-8) in response to medium acidification, the acetate built up inside the cell may be modeled. The internal acetate concentration of a cell may be calculated from the external culture pH, and the residual acetate concentration in the culture, assuming that the internal pH of the cell and the ionic strength are maintained constant. The pH gradient between the internal cell pH and pH of the culture medium outside the cell may be calculated with the following equation derived from the Hendersen Hassleback equation, from which the internal acetate concentration can be solved: […]
An experiment was conducted to determine the acetate toxicity of Aurantiochytrium sp. HS399. […] The initial culture medium was supplemented with 30 g/L glycerol and 0.5 or 5 g/L acetate.

Chlorella sp. HS26 [5] = settings: pH 6±0.2 auxostat, dissolved oxygen
Procedure: An experiment was performed to determine the effect on respiration in microalgae Chlorella sp. HS26 in response to acetate toxicity conditions (i.e., the increase of the internal cell acetate concentration). […] Data presented corresponds to a continuous 200 L bubble column culture growing in axenic conditions at culture density of 12 g/L, that was incubated at a temperature of 25 f 0.3° C., and aerated at a rate of 30 LPM. The pH probe: E&H, Digital non-glass pH sensor, Tophit CPS471D helped to maintain the pH at 6±0.2 in a pH auxostat mode. The DO was recorder with a Hamilton, EasyFerm Plus Arc 120, P/N: 242091/06 probe. Samples were taken before and after each pulse and analyzed for residual acetate using HPLC.

Chlorella sp. HS26 [6] = test system: Chlorella sp. HS26; remark: listed apart in the source
Procedure: An experiment was conducted with Chlorella sp. HS26 to evaluate the impact of pH induced acetate toxicity on microalgal growth during a batch culturing process. The two treatments of pH 6.5 and pH 7.5 were set up in outdoor raceway ponds utilizing a pH auxostat with a set point at the designated pH values and cultured for seven days. Duplicate cultures of each treatment were performed in the experiment. […] The cultures were inoculated at a density of 1 g/L, cultured at a temperature of 25° C., and received natural sunlight.

[7] = test system: Aurantiochytrium sp. HS399; settings: pH 6±0.2 auxostat, dissolved oxygen
Procedure: An experiment was performed to determine the effect on respiration in microalgae Aurantiochytrium sp. HS399 in response to acetate toxicity (i.e., the increase of the internal cell acetate concentration). […] Data presented corresponds to a 4 day old 30 L bubble column bag bioreactor growing in axenic conditions at culture density of 24 g/L, that was incubated at a temperature of 29.5±0.3° C., and aerated at a rate of 10 LPM. The pH probe: E&H, Digital non-glass pH sensor, Tophit CPS471D helped to maintain the pH at 6±0.2 in a pH auxostat mode. The DO was recorder with a Hamilton, EasyFerm Plus Arc 120, P/N: 242091/06 probe. Samples were taken before and after each pulse and analyzed for residual acetate using HPLC. Internal acetate was fluctuations were calculated based on medium residual acetate by integrating the previously presented equation:

[8] = test system: Aurantiochytrium sp. HS399; remark: listed apart in the source
[9] = test system: Aurantiochytrium sp. HS399; settings: nitrogen source
Procedure: An experiment was conducted to determine the effect of different nitrogen sources on the internal cell acetate concentration for cultures of Aurantiochytrium sp. HS399 cultures. […] 7H2O (2.5), KCl (0.5), CaCl2 (0.1), KH2PO4 (0.5) vitamins (1 ml/L) and trace metal (5 ml/L). […] The ponds were inoculated at 1 v/v using exponentially growing cultures. Aeration was maintained at 0.5 vvm using a porous hose. Equimolar nitrogen concentrations were added top each pond reactor. […] Culture dry weights (filtration) and residual acetate (HPLC) in the culture medium were analyzed daily. Cytosolic (internal cell) acetate concentration was calculated using the previously described model.

CC(=O)O [Acetic Acid, acetic acid]
Cell Dry Weight (Chlorella sp. HS26 [1]; day 0): 0.3 g/L
Cell Dry Weight (Chlorella sp. HS26 [1]; day 1): 0.8 g/L
Cell Dry Weight (Chlorella sp. HS26 [1]; day 2): 2.7 g/L
Cell Dry Weight (Chlorella sp. HS26 [1]; day 3): 3.7 g/L
Cell Dry Weight (Chlorella sp. HS26 [1]; day 4): 4.7 g/L
Cell Dry Weight (Chlorella sp. HS26 [1]; day 5): 5.3 g/L
Cell Dry Weight (Chlorella sp. HS26 [1]; day 6): 5.3 g/L
Ash (Chlorella sp. HS26 [2]; pH 6.5, day 0): 26 6 % DW
Total Carbohydrates (Chlorella sp. HS26 [2]; pH 6.5, day 0): 28.51 % DW
Total Lipids (Chlorella sp. HS26 [2]; pH 6.5, day 0): 9.82 % DW
Total Protein (Chlorella sp. HS26 [2]; pH 6.5, day 0): 35.07 % DW
Ash (Chlorella sp. HS26 [2]; pH 6.5, day 8): 3.26 % DW
Total Carbohydrates (Chlorella sp. HS26 [2]; pH 6.5, day 8): 32.13 % DW
Total Lipids (Chlorella sp. HS26 [2]; pH 6.5, day 8): 29.34 % DW
Total Protein (Chlorella sp. HS26 [2]; pH 6.5, day 8): 35.28 % DW
Ash (Chlorella sp. HS26 [2]; pH 7.5, day 0): 26 6 % DW
Total Carbohydrates (Chlorella sp. HS26 [2]; pH 7.5, day 0): 28.51 % DW
Total Lipids (Chlorella sp. HS26 [2]; pH 7.5, day 0): 9.82 % DW
Total Protein (Chlorella sp. HS26 [2]; pH 7.5, day 0): 35.07 % DW
Ash (Chlorella sp. HS26 [2]; pH 7.5, day 8): 3.05 % DW
Total Carbohydrates (Chlorella sp. HS26 [2]; pH 7.5, day 8): 33.62 % DW
Total Lipids (Chlorella sp. HS26 [2]; pH 7.5, day 8): 23.66 % DW
Total Protein (Chlorella sp. HS26 [2]; pH 7.5, day 8): 39.69 % DW
Aerobic bacteria count (Aerobic bacteria; pH set point 5.5, day 0.0): 1.1E+04 CFU/mL
Aerobic bacteria count (Aerobic bacteria; pH set point 5.5, day 0.9): 2.1E+04 CFU/mL
Aerobic bacteria count (Aerobic bacteria; pH set point 5.5, day 1.9): 2.2E+04 CFU/mL
Contamination (total aerobic bacteria; day 0): 5.5E+04 CFU/mL
Contamination (total aerobic bacteria; day 1): 4.8E+05 CFU/mL
Contamination (total aerobic bacteria; day 2): 5.7E+07 CFU/mL
Contamination (total aerobic bacteria; day 3): 4.0E+10 CFU/mL
Contamination (total aerobic bacteria; day 4): 4.6E+12 CFU/mL
Contamination (total aerobic bacteria; day 5): 8.0E+14 CFU/mL
decrease of aerobic bacteria counts versus other treatment (total aerobic bacteria; throughout the batch, acetate toxicity conditions (pH 5.5)): ≥ 3 log
Cell Dry Weight ([3]; day 0): 0.0 g/L
Cell Dry Weight ([3]; day 1): 1.1 g/L
Cell Dry Weight ([3]; day 2): 3.5 g/L
Cell Dry Weight ([3]; day 3): 6.2 g/L
Cell Dry Weight ([3]; day 4): 7.7 g/L
Cell Dry Weight ([3]; day 5): 9.7 g/L
growth ([4]; 53 g/L internal acetate concentration): tolerated
growth ([4]; 153 g/l internal acetate concentration): inhibited
growth ([4]; 329 g/L internal acetate concentration): did not proliferate
Cell Dry Weight ([4]; pH 4.5, day 0): 0.3 g/L
Cell Dry Weight ([4]; pH 4.5, day 1): 1.8 g/L
Cell Dry Weight ([4]; pH 4.5, day 2): 4.5 g/L
Cell Dry Weight ([4]; pH 4.5, day 3): 6.4 g/L
Cell Dry Weight ([4]; pH 4.5, day 4): 7.8 g/L
Cell Dry Weight ([4]; pH 4.5, day 5): 8.4 g/L
Cell Dry Weight ([4]; pH 4.5, day 6): 9.3 g/L
Cell Dry Weight ([4]; pH 5.0, day 0): 0.3 g/L
Cell Dry Weight ([4]; pH 5.0, day 1): 2.1 g/L
Cell Dry Weight ([4]; pH 5.0, day 2): 5.6 g/L
Cell Dry Weight ([4]; pH 5.0, day 3): 8.1 g/L
Cell Dry Weight ([4]; pH 5.0, day 4): 9.9 g/L
Cell Dry Weight ([4]; pH 5.0, day 5): 10.6 g/L
Cell Dry Weight ([4]; pH 5.0, day 6): 11.4 g/L
Cell Dry Weight ([4]; pH 5.5, day 0): 0.3 g/L
Cell Dry Weight ([4]; pH 5.5, day 1): 1.9 g/L
Cell Dry Weight ([4]; pH 5.5, day 2): 5.5 g/L
Cell Dry Weight ([4]; pH 5.5, day 3): 8.5 g/L
Cell Dry Weight ([4]; pH 5.5, day 4): 10.8 g/L
Cell Dry Weight ([4]; pH 5.5, day 5): 11.4 g/L
Cell Dry Weight ([4]; pH 5.5, day 6): 12.0 g/L
Cell Dry Weight ([4]; pH 7.0, day 0): 0.3 g/L
Cell Dry Weight ([4]; pH 7.0, day 1): 2.7 g/L
Cell Dry Weight ([4]; pH 7.0, day 2): 7.1 g/L
Cell Dry Weight ([4]; pH 7.0, day 3): 9.8 g/L
Cell Dry Weight ([4]; pH 7.0, day 4): 12.0 g/L
Cell Dry Weight ([4]; pH 7.0, day 5): 12.7 g/L
Cell Dry Weight ([4]; pH 7.0, day 6): 12.7 g/L
respiration rate in response to acetic acid toxicity (Chlorella sp. HS26 [5]): increases its respiration rate
average three-day productivity (Chlorella sp. HS26 [6]; pH 6.5 cultures): 1.14 g/L/day
average three-day productivity (Chlorella sp. HS26 [6]; pH 7.5 cultures): 0.76 g/L/day
respiration rate in response to acetic acid toxicity [7]: increases respiration rate
growth inhibited ([8]; internal acetate concentration 53 g/L): not
growth inhibited ([8]; internal acetate concentration 153 g/L): inhibited
Cell Dry Weights ([8]; pH 4.5, day 0): 0.4 g/L
Cell Dry Weights ([8]; pH 4.5, day 1): 0.5 g/L
Cell Dry Weights ([8]; pH 4.5, day 2): 0.3 g/L
Cell Dry Weights ([8]; pH 4.5, day 3): 0.2 g/L
Cell Dry Weights ([8]; pH 4.5, day 4): 0.3 g/L
Cell Dry Weights ([8]; pH 4.5, day 5): 0.0 g/L
Cell Dry Weights ([8]; pH 5.0, day 0): 0.4 g/L
Cell Dry Weights ([8]; pH 5.0, day 1): 2.3 g/L
Cell Dry Weights ([8]; pH 5.0, day 2): 5.0 g/L
Cell Dry Weights ([8]; pH 5.0, day 3): 7.1 g/L
Cell Dry Weights ([8]; pH 5.0, day 4): 8.9 g/L
Cell Dry Weights ([8]; pH 5.0, day 5): 10.0 g/L
Cell Dry Weights ([8]; pH 5.5, day 0): 0.4 g/L
Cell Dry Weights ([8]; pH 5.5, day 1): 2.7 g/L
Cell Dry Weights ([8]; pH 5.5, day 2): 5.6 g/L
Cell Dry Weights ([8]; pH 5.5, day 3): 8.0 g/L
Cell Dry Weights ([8]; pH 5.5, day 4): 10.2 g/L
Cell Dry Weights ([8]; pH 5.5, day 5): 11.6 g/L
Cell Dry Weights ([8]; pH 7.0, day 0): 0.4 g/L
Cell Dry Weights ([8]; pH 7.0, day 1): 1.5 g/L
Cell Dry Weights ([8]; pH 7.0, day 2): 2.9 g/L
Cell Dry Weights ([8]; pH 7.0, day 3): 4.1 g/L
Cell Dry Weights ([8]; pH 7.0, day 4): 5.4 g/L
Cell Dry Weights ([8]; pH 7.0, day 5): 6.3 g/L

Cl [HCl, hydrochloric acid]
Contamination (total aerobic bacteria; day 0): 1.9E+05 CFU/mL
Contamination (total aerobic bacteria; day 1): 2.9E+10 CFU/mL
Contamination (total aerobic bacteria; day 2): 1.3E+16 CFU/mL
Contamination (total aerobic bacteria; day 3): 2.1E+18 CFU/mL
Contamination (total aerobic bacteria; day 4): 1.4E+17 CFU/mL
Contamination (total aerobic bacteria; day 5): 3.4E+21 CFU/mL
Cell Dry Weight ([3]; day 0): 0.1 g/L
Cell Dry Weight ([3]; day 1): 1.6 g/L
Cell Dry Weight ([3]; day 2): 4.3 g/L
Cell Dry Weight ([3]; day 3): 5.5 g/L
Cell Dry Weight ([3]; day 4): 6.5 g/L
Cell Dry Weight ([3]; day 5): 8.1 g/L

N[C@@H](CCC(=O)O)C(=O)[O-].[Na+] [MSG, monosodium glutamate]
Cell Dry Weight ([9]; day 0): 0.2 g/L
Cell Dry Weight ([9]; day 1): 3.5 g/L
Cell Dry Weight ([9]; day 2): 6.8 g/L
Cell Dry Weight ([9]; day 3): 8.1 g/L
Cell Dry Weight ([9]; day 4): 9.7 g/L
Cell Dry Weight ([9]; day 5): 10.2 g/L

N [NH3, ammonia]
Cell Dry Weight ([9]; day 0): 0.2 g/L
Cell Dry Weight ([9]; day 1): 1.9 g/L
Cell Dry Weight ([9]; day 2): 7.4 g/L
Cell Dry Weight ([9]; day 3): 7.8 g/L
Cell Dry Weight ([9]; day 4): 9.9 g/L
Cell Dry Weight ([9]; day 5): 10.3 g/L
